Results published in ChEMBL document CHEMBL3045735, “Antibacterial and molecular docking studies of entagenic acid, a bioactive principle from seed kernel of Entada pursaetha DC” (2012).
≈ marks a conversion by molar mass, not a printed value.

Columns and labels:
Assay type in all cases: functional
Alcaligenes faecalis [1] = test: Antibacterial activity against Alcaligenes faecalis NCIM-2262 after 24 hr by agar diffusion assay
Klebsiella aerogenes [2] = test: Antibacterial activity against Enterobacter aerogenes NCIM 2036 after 24 hr by broth dilution method; conditions: NCIM-2036, 24 h
Escherichia coli [3] = test: Antibacterial activity against Escherichia coli NCIM-2065 after 24 hr by broth dilution method; conditions: NCIM-2065, 24 h
Proteus vulgaris [4] = test: Antibacterial activity against Proteus vulgaris NCIM-2027 after 24 hr by agar diffusion assay
Bacillus subtilis [5] = test: Antibacterial activity against Bacillus subtilis NCIM-2063 after 24 hr by agar diffusion assay
Bacillus cereus [6] = test: Antibacterial activity against Bacillus cereus NCIM-2155 after 24 hr by broth dilution method; conditions: NCIM-2155, 24 h
Escherichia coli [7] = test: Antibacterial activity against Escherichia coli NCIM-2065 after 24 hr by agar diffusion assay
Alcaligenes faecalis [8] = test: Antibacterial activity against Alcaligenes faecalis NCIM-2262 after 24 hr by broth dilution method; conditions: NCIM-2262, 24 h
Klebsiella aerogenes [9] = test: Antibacterial activity against Enterobacter aerogenes NCIM 2036 after 24 hr by agar diffusion assay
Bacillus cereus [10] = test: Antibacterial activity against Bacillus cereus NCIM-2155 after 24 hr by agar diffusion assay
Staphylococcus aureus [11] = test: Antibacterial activity against Staphylococcus aureus NCIM-2079 after 24 hr by agar diffusion assay
Pseudomonas aeruginosa [12] = test: Antibacterial activity against Pseudomonas aeruginosa NCIM-2036 after 24 hr by agar diffusion assay
Staphylococcus aureus [13] = test: Antibacterial activity against Staphylococcus aureus NCIM-2079 after 24 hr by broth dilution method; conditions: NCIM-2079, 24 h
Bacillus subtilis [14] = test: Antibacterial activity against Bacillus subtilis NCIM-2063 after 24 hr by broth dilution method; conditions: NCIM-2063, 24 h
Proteus vulgaris [15] = test: Antibacterial activity against Proteus vulgaris NCIM-2027 after 24 hr by broth dilution method; conditions: NCIM-2027, 24 h
Pseudomonas aeruginosa [16] = test: Antibacterial activity against Pseudomonas aeruginosa NCIM-2036 after 24 hr by broth dilution method; conditions: NCIM-2036, 24 h

MIC (Klebsiella aerogenes [2]) [µg/mL]	MIC (Escherichia coli [3]) [µg/mL]	MIC (Bacillus cereus [6]) [µg/mL]	MIC (Alcaligenes faecalis [8]) [µg/mL]	MIC (Staphylococcus aureus [13]) [µg/mL]	MIC (Bacillus subtilis [14]) [µg/mL]	MIC (Proteus vulgaris [15]) [µg/mL]	MIC (Pseudomonas aeruginosa [16]) [µg/mL]	SMILES	diameter of the inhibition zone (DIZ) (Alcaligenes faecalis [1]) [mm]	diameter of the inhibition zone (DIZ) (Proteus vulgaris [4]) [mm]	diameter of the inhibition zone (DIZ) (Bacillus subtilis [5]) [mm]	diameter of the inhibition zone (DIZ) (Escherichia coli [7]) [mm]	diameter of the inhibition zone (DIZ) (Klebsiella aerogenes [9]) [mm]	diameter of the inhibition zone (DIZ) (Bacillus cereus [10]) [mm]	diameter of the inhibition zone (DIZ) (Staphylococcus aureus [11]) [mm]	diameter of the inhibition zone (DIZ) (Pseudomonas aeruginosa [12]) [mm]
300 (≈ 614 µM)	250 (≈ 512 µM)	100 (≈ 205 µM)	150 (≈ 307 µM)	100 (≈ 205 µM)	100 (≈ 205 µM)	250 (≈ 512 µM)	150 (≈ 307 µM)	CC1(C)CC[C@]2(C(=O)O)[C@H](O)[C@H](O)[C@]3(C)C(=CC[C@@H]4[C@@]5(C)CC[C@H](O)C(C)(C)[C@@H]5CC[C@]43C)[C@@H]2C1 [ENTAGENIC ACID]	15	13.5	18	13	6.5	22	17.5	15
–	–	–	–	–	–	–	–	CN[C@@H]1[C@H](O[C@H]2[C@H](O[C@H]3[C@H](O)[C@@H](O)[C@H](N=C(N)N)[C@@H](O)[C@@H]3N=C(N)N)O[C@@H](C)[C@]2(O)C=O)O[C@@H](CO)[C@H](O)[C@H]1O [STREPTOMYCIN]	22.37	24.36	22.33	18.42	19.38	20.53	19.41	21.15
